Target: T1, Human STING (Homo sapiens, UniProt Q86WV6, G230A/H232R/R293Q/R71H)
T1 construct: host or cells: THP1-Dual cells, digitonin-permeabilized
Assay: Activation of human STING signaling in permeabilized THP1 cells, IRF3 induction
Assay type: cell-based
Settings: THP1-Dual cells permeabilized with digitonin buffer 30 minutes on ice, then 24 h in RPMI media
Procedure: To evaluate IRF3 reporter levels, cell culture supernatant (20 μl) from each incubated sample was added to QUANTI-Luc™ assay solution (Invivogen, 50 μl), and the luminescence was measured with a SpectraMax M3 spectrophotometer (Molecular Devices).
4×10^5 THP1-Dual™ cells (NF-κB-SEAP and IRF-Lucia luciferase Reporter Monocytes, Invivogen) were incubated with test Compounds in a 5-fold titration steps from […] in permeabilized buffer (50 mM HEPES pH 7.0, 100 mM KCl, 3 mM MgCl2, 85 mM sucrose, 0.2% BSA, 1 mM ATP, 0.1 mM GTP, 0.1 mM TTP, 1 μg/ml digitonin) for 30 minutes on ice. Cells were then washed and incubated in a fresh RPMI media with 10% FBS at 37° C. with 5% CO2 for 24 h. Cell culture supernatants from each sample were collected and NFkB and IRF3 were evaluated as above. Table 3 provides the results for IRF3 induction (“A” means <1 μM; “B” means ≥1 μM and <50 μM; “C” means ≥50 μM).

T1 sequence (Q86WV6 whole entry R71H/G230A/H232R/R293Q): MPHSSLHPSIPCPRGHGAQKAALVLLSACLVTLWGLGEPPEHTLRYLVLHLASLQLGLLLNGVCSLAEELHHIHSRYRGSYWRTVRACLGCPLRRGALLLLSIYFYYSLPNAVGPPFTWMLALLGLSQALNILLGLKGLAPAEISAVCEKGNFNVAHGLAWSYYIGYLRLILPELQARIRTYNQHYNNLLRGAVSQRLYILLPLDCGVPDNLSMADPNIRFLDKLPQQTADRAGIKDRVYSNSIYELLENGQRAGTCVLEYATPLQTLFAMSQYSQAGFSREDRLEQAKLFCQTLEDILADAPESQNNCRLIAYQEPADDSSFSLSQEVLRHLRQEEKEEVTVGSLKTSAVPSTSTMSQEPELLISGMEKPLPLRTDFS

Compound | EC50 [nM]
CCn1nc(C)cc1C(=O)/N=c1\sc2cc(C(N)=O)cnc2n1C/C=C/Cn1c(NC(=O)c2cc(C)nn2CC)nc2cc(C(N)=O)cc(OCCCO)c21 [compound 110] | < 1000
CCc1nc(C)oc1C(=O)Nc1nc2cc(C(N)=O)cc(OCCCO)c2n1C/C=C/Cn1c(NC(=O)c2cc(C)nn2CC)nc2cc(C(N)=O)cnc21 [Compound 111] | < 1000
CCc1nc(C)oc1C(=O)Nc1nc2cc(NC(C)=O)cc(OC)c2n1C/C=C/Cn1c(NC(=O)c2oc(C)nc2CC)nc2cc(C(N)=O)cc(OCCCO)c21 [Compound 131] | 1000 to 50000
CCc1nc(C)oc1C(=O)/N=c1\sc2cc(C(N)=O)cnc2n1C/C=C/Cn1c(NC(=O)c2sc(C)nc2CC)nc2cc(C(N)=O)cc(OCCCO)c21 [Compound 142] | < 1000
CCc1nc(C)oc1C(=O)/N=c1\sc2cc(C(N)=O)cc(OC)c2n1C/C=C/Cn1c(NC(=O)c2sc(C)nc2CC)nc2cc(C(N)=O)cc(OCCCO)c21 [compound 70] | ≥ 50000
CCc1nc(C)oc1C(=O)Nc1nc2cc(C(N)=O)cnc2n1C/C=C/Cn1c(NC(=O)c2oc(C)nc2CC)nc2cc(C(N)=O)cnc21 [compound 85] | 1000 to 50000
CCc1nc(C)oc1C(=O)Nc1nc2cc(C(N)=O)cc(OC)c2n1C/C=C/Cn1c(NC(=O)c2sc(C)nc2CC)nc2cc(C(N)=O)cc(OCCCO)c21 [compound 40] | < 1000
Cc1cc(C(=O)Nc2nc3cc(C(N)=O)ccc3n2C/C=C/Cn2c(NC(=O)c3cc(C)on3)nc3cc(C(N)=O)cc(OCCCO)c32)no1 [compound 26] | < 1000
CCc1nn(C)cc1C(=O)Nc1nc2cc(C(N)=O)cc(OCCCO)c2n1C/C=C/Cn1c(NC(=O)c2cc(C)nn2CC)nc2cc(C(N)=O)cc(OC)c21 [compound 39] | < 1000
CCn1nc(C)cc1C(=O)Nc1nc2cc(CNC(C)=O)cnc2n1C/C=C/Cn1c(NC(=O)c2cc(C)nn2CC)nc2cc(C(N)=O)cc(OCCCO)c21 [Compound 126] | < 1000
CCc1nc(C)oc1C(=O)Nc1nc2cc(C(N)=O)cc(OCCCO)c2n1C/C=C/Cn1c(NC(=O)c2cc(C)nn2CC)nc2cc(C(N)=O)ccc21 [compound 51] | < 1000
CCc1nc(C)n(C)c1C(=O)Nc1nc2cc(C(N)=O)cc(OCCCO)c2n1C/C=C/Cn1c(NC(=O)c2cc(C)nn2CC)nc2cc(C(N)=O)cc(OC)c21 [compound 41] | ≥ 50000
CCc1nc(C)sc1C(=O)Nc1nc2cc(C(N)=O)cc(OCCCO)c2n1C/C=C/Cn1c(NC(=O)c2cc(C)nn2CC)nc2cc(C(N)=O)cc(OC)c21 [compound 38] | < 1000
CCn1nc(C)cc1C(=O)Nc1nc2cc(C(N)=O)cnc2n1C/C=C/Cn1c(NC(=O)c2cc(C)nn2CC)nc2cc(C(N)=O)cc(OCCCC(=O)O)c21 [Compound 112] | < 1000
CCn1nc(C)cc1C(=O)Nc1nc2cc(CN)cnc2n1C/C=C/Cn1c(NC(=O)c2cc(C)nn2CC)nc2cc(C(N)=O)cc(OC)c21 [Compound 129] | 1000 to 50000
CCn1nc(C)cc1C(=O)Nc1nc2cc(CN(C)C)cnc2n1C/C=C/Cn1c(NC(=O)c2cc(C)nn2CC)nc2cc(C(N)=O)cc(OCCCO)c21 [Compound 125] | < 1000
CCc1nc(C)oc1C(=O)Nc1nc2cc(C(N)=O)cnc2n1C/C=C/Cn1c(NC(=O)c2sc(C)nc2CC)nc2cc(C(N)=O)cc(OCCCC(=O)O)c21 [Compound 151] | < 1000
CCc1nc(C)oc1C(=O)Nc1nc2cc(CN(C)C)cc(OC)c2n1C/C=C/Cn1c(NC(=O)c2oc(C)nc2CC)nc2cc(C(N)=O)cc(OCCCO)c21 [Compound 133] | 1000 to 50000
